According to patent publication US20160000066A1, “Furfural derivatives as a vehicle” (priority 2013, published 2016):

Columns and labels:
Type in all cases: physicochemical
[1] = Solubilization of resins in the test solvent: BADGE DER 331; conditions: BADGE DER 331 in the compound as solvent
Protocol: (§1) The following table lists the solubilities obtained for four resins tested: BADGE DER 331 epoxy resin sold by DOW CHEMICAL, Palatal A400-01 polyester resin sold by DSM, Novolac DEN 425 epoxy resin sold by DOW CHEMICAL and TGPA resin available from Sigma Aldrich.
(§2) A single solubility test was carried out per solvent/resin pair, at a working concentration of 100 g/l, at ambient temperature. The tests were carried out on the milliliter scale (i.e., 0.5 g/5 ml). The tests are carried out in transparent glass flasks. The resin (0.5 g) is weighed into the flask and then the required volume (5 ml) of test solvent is introduced into this same flask. Stirring is carried out using a vortex mixer for 1 to 5 minutes. The results for solubility of the resins in the solvents tested, shown in the table below, are obtained by visual observations.

[2] = Solubilization of resins in the test solvent: Palatal A400-01; conditions: Palatal A400-01 in the compound as solvent
Protocol: as §1, §2

[3] = Solubilization of resins in the test solvent: Novolac DEN 425; conditions: Novolac DEN 425 in the compound as solvent
Protocol: as §1, §2

[4] = Solubilization of resins in the test solvent: TGPA; conditions: TGPA in the compound as solvent, visual
Protocol: as §1, §2

[5] = adjusted protocol: solvent heated on a water bath at 30° C. before the test

SMILES | Solubility at ambient temperature (100 g/l) ([1]; ambient temperature, visual) | Solubility at ambient temperature (100 g/l) ([2]; ambient temperature, visual) | Solubility at ambient temperature (100 g/l) ([3]; ambient temperature, visual) | Solubility at ambient temperature (100 g/l) [4] | Solubility at ambient temperature (100 g/l) [1, 5] | Solubility at ambient temperature (100 g/l) [2, 5] | Solubility at ambient temperature (100 g/l) [3, 5]
CC(C)C(=O)/C=C/c1ccco1 [(3)] | Soluble | Soluble | Soluble | Soluble | – | – | –
CC(=O)/C=C/c1ccco1 [(1)] | – | – | – | – | Soluble* | Soluble* | Soluble*
CCCCN=Cc1ccco1 [(15)] | Partial | Soluble | Soluble | Soluble | – | – | –
Cc1ccc(C=O)o1 [(17)] | Soluble | Soluble | Soluble | Soluble | – | – | –
CCCCCCCCN=Cc1ccco1 [(16)] | Partial | Soluble | Soluble | Soluble | – | – | –

The next lines start with the values.

Solubility at ambient temperature (100 g/l) ([1]; ambient temperature, visual) | Solubility at ambient temperature (100 g/l) ([2]; ambient temperature, visual) | Solubility at ambient temperature (100 g/l) ([3]; ambient temperature, visual) | Solubility at ambient temperature (100 g/l) [4] | Solubility at ambient temperature (100 g/l) [1, 5] | Solubility at ambient temperature (100 g/l) [2, 5] | Solubility at ambient temperature (100 g/l) [3, 5] | SMILES
Soluble | Soluble | Soluble | Soluble | – | – | – | O=C(OCCc1ccccc1)c1ccco1 [(10)]
Soluble | Soluble | Soluble | Soluble | – | – | – | CCCCCOC(=O)c1ccco1 [(9)]
Partial | Soluble | Soluble | – | – | – | – | CCCOC(=O)c1ccco1 [(6)]
Soluble | Soluble | Soluble | Soluble | – | – | – | COC(=O)c1ccco1 [(8)]
